The values below are quoted from earlier work in patent US20240191206A1, “SERUM FREE MEDIA FOR SUSPENSION CULTURE OF MAMMALIAN LIVESTOCK PLURIPOTENT STEM CELLS” (ACCELLTA LTD., priority 2021, published 2024).

For the compound `O=S(=O)(F)Cc1ccccc1` [PMSF, phenylmethylsulfonyl fluoride], the stability in water result is reported as “rapidly degraded”. Further, the “concentration at which proteolytic inhibition occurs” value in the data set with serine protease was 0.1 to 1 mM.
